The test system of data set [1] is B. pseudomallei K96243 biofilm. Type of data set: cell-based, Burkholderia pseudomallei. Also on record: Mean Diff., Untreated vs treated, Dunnett's Multiple Comparison Test (data for figure 2): unit not given here.
Data set [2] deals with B. pseudomallei strains used in the preliminary study. Type of data set: cell-based, Burkholderia pseudomallei.
Another data set relates to E.coli ATCC 25922. It counts as cell-based, Escherichia coli.
Data set [3] relates to A549, HEPG2 and AGS cells.
A further data set concerns B. pseudomallei isolates. Type of data set: cell-based, Burkholderia pseudomallei.
For data set [4], the system named is B. pseudomallei strain K96243. Type of data set: cell-based, Burkholderia pseudomallei.
For the next data set, the system named is B. pseudomallei K96243. Type of data set: cell-based, Burkholderia pseudomallei.
The next data set deals with E. coli. It counts as cell-based, Escherichia coli.
The subject of data set [5] is B. pseudomallei strain K96243 and clinical strains UMC031, UMC080, UMC089. The conditions noted are these: for MIC, B. pseudomallei (average): 24 h.
In data set [6] the test system is Escherichia coli (ATCC 29522).
Data set [7] has as its system human lung epithelial (A549) cells.
Data set [8] has as its system human hepatocellular carcinoma (HepG2) cells.
In data set [9] the test system is human gastric adenocarcinoma (AGS) cells.
For the next data set, the system named is B. pseudomallei biofilm. The conditions noted are these: cited from earlier work.
Data set [10] concerns human hepatocellular carcinoma (HepG2) cells. To be noted: cited from earlier work.
Data set [11] relates to human lung epithelial (A549) cells. The conditions noted are these: cited from earlier work.
In data set [12] the test system is human gastric adenocarcinoma (AGS) cells. The conditions noted are these: cited from earlier work.

Converted amounts (≈) assume the structure as drawn. “And” between values parts separate entries of the source, which are not always exact repeats. Equal entries are not always repeated. “Also recorded” adds a separate entry of the source. Where two headings read alike, the source gives them in different places. Positions of bridges follow the written chain, without caps; N, C: chain ends. Residues, ends and D or L forms follow the SMILES beside them.

As for `C[C@@H](O)[C@H]1C(=O)N2C(C(=O)O)=C(S[C@@H]3CN[C@H](C(=O)N(C)C)C3)[C@H](C)[C@H]12` [MRP, meropenem], the “Mean Diff., Untreated vs treated, Dunnett's Multiple Comparison Test (data for figure 2)” value (“Mean Diff., Untreated vs treated” for short) in [1] amounted to 7.842. Besides, the “reduction of surviving bacteria in biofilm state compared to the untreated (significance)” value (“reduction of surviving bacteria … (significance)” for short) in [1] is on record as “significant reduction”. For the same compound, in data set [1] (24 h), the “inhibition of bacteria in biofilm state compared to untreated” value is “complete inhibition”. The “Antibiotic susceptibility by disk diffusion” value (“Antibiotic susceptibility” for short) (in data set [2]; in the data set with E.coli ATCC 25922) was “S” each time. Further, the “Mean Diff., 0 vs comparator, Dunnett's Multiple Comparison Test (MTT)” value (shortened to “Mean Diff., 0 vs comparator”) in data set [3] stood at 11.53.

As to `C[C@@H](O)[C@H]1C(=O)N2C(C(=O)O)=C(SCCN=CN)C[C@H]12` [IMI], the “Antibiotic susceptibility” value (in [2]; with E.coli ATCC 25922) was “S” in each case.

Take `CC[C@H](C)[C@@H]1NC(=O)CNC(=O)[C@H](CCCNC(=N)N)NC(=O)[C@H](Cc2ccc(O)cc2)NC(=O)[C@@H]2CSSC[C@H](NC1=O)C(=O)N[C@@H](Cc1ccc(O)cc1)C(=O)N[C@@H](CCCNC(=N)N)C(=O)N[C@@H](CCCNC(=N)N)C(=O)N[C@H](C(=O)N[C@@H](CCCNC(=N)N)C(N)=O)CSSC[C@H](NC(=O)[C@H](Cc1c[nH]c3ccccc13)NC(=O)[C@@H](N)CCCCN)C(=O)N[C@@H](Cc1ccccc1)C(=O)N[C@@H](CCCNC(=N)N)C(=O)N[C@@H](C(C)C)C(=O)N2` [TP1, Tachyplesin 1] (H-KWCFRVCYRGICYRRCR-NH2; disulfide 3-16, 7-12): in the data set on B. pseudomallei isolates, the “B. pseudomallei isolates susceptible to the AMP” value is 83%; the “Susceptibility of strain to AMP (S/R), preliminary study” value (“Susceptibility of strain to AMP (S/R)” for short) is “S and R”. For the same compound, in data set [4], the “concentration inhibiting B. pseudomallei K96243 growth” value was > 55 µM, the “time after exposure to growth inhibition” value was “following eight hours of exposure” and the “viable bacteria at 24 h” value turned out to be 9.96 log CFU/ml. In [1], the MBEC entry is given as “not achieved”; the “Mean Diff., 0 vs concentration (Bonferroni's test)” value was 4.116 and 4.208; the “Mean Diff., Untreated vs treated” value was 3.641; the “concentration of maximum inhibition of cells in biofilm state” value was determined as 442 µM. Also, in [1], the “concentration reducing the number of B. pseudomallei in biofilm state” value is on record as “above 55 μM”; the “inhibition activity of TP1 higher than LL-37” value is listed as “approximately 2.0 log”; the “inhibition activity of TP1 lower than PG1” value stood at 3.5 log; the “log reduction of bacteria in biofilm state” value is 1.0 log and 1.3 log. In addition, in data set [1], the “reduction of surviving bacteria … (significance)” value is on record as “significant reduction”, the “surviving bacteria in biofilm state” value was ~4.00 log CFU/biofilm and the “surviving bacteria in biofilm state 24 h post exposure” value stood at 4.2 log CFU/biofilm. The “surviving bacteria in biofilm state at the end of the TP1 concentration series” value in data set [1] (24 h) is given as 3.6 log CFU/biofilm. For the same compound, the “cell morphology by SEM” value with B. pseudomallei K96243 is reported as “membrane blebbing; also recorded: corrugated with dimples on the surface”. Moreover, the “Susceptibility of strain to AMP (S/R)” value in the data set on E. coli is “S”. For the same compound, in [5] (37 °C 24 h), the “MBC, B. pseudomallei (average)” value was found to be 193.35 ± 2.00E-14 μM. In addition, in data set [5], the “MIC, B. pseudomallei (average)” value is 61.69 ± 6.38 µM (≈ 140 µg/mL). In addition, in data set [6] (ATCC 29522, 24 h), the “MBC, E.coli (ATCC 29522)” value came out at 22.1 ± 0 µM (≈ 50 µg/mL) and the “MIC, E.coli (ATCC 29522)” value is 22.1 ± 0 µM (≈ 50 µg/mL). The “MTT, mean over the lower concentrations” value in [7] turned out to be 86.0736. Further, the “MTT, mean over the lower concentrations” value in data set [8] is reported as 91.041. Further, in data set [9], the “MTT, mean over the lower concentrations” value was 87.0414. Also, the “percentage of viable cells, AGS” value in data set [9] (2 h, 2.7 μM) was 85.1%. The “percentage of viable cells, AGS” value in [9] (2 h, 48.6 μM) worked out at 80%. Besides, the “percentage of viable cells, AGS” value in data set [9] (24 h, 22.3 μM) was 90.0 ± 8.4%.

Ornithine: the “Susceptibility of strain to AMP (S/R)” value with B. pseudomallei isolates is given as “R”; in the data set on E. coli it was “S”.

On to “GFKLKGMARISCLPNGQWSNFPPKCIRECA [Sushi 1]”, for which the “Susceptibility of strain to AMP (S/R)” value with B. pseudomallei isolates is given as “R”; with E. coli, “S”. Further, the “Mean Diff., Untreated vs treated” value in data set [1] came to 0.04572.

Take `C[C@H]1c2cccc(O)c2C(O)=C2C(=O)[C@]3(O)C(O)=C(C(N)=O)C(=O)[C@@H](N(C)C)[C@@H]3[C@@H](O)[C@@H]21` [DXT]: the “Antibiotic susceptibility” value (in [2]; in the data set on E.coli ATCC 25922) was “S” in each case.

On to `CN(C)c1cc(NC(=O)CNC(C)(C)C)c(O)c2c1C[C@H]1C[C@H]3[C@H](N(C)C)C(O)=C(C(N)=O)C(=O)[C@@]3(O)C(O)=C1C2=O` [TGC], for which the “Antibiotic susceptibility” value in [2] is “R and S”.

For `CC(C)(O/N=C(\C(=O)N[C@@H]1C(=O)N2C(C(=O)[O-])=C(C[n+]3ccccc3)CS[C@H]12)c1csc(N)n1)C(=O)O` [CAZ, ceftazidime], the “time after exposure to growth inhibition / bactericidal endpoint” value in [4] is recorded as 8 h. In data set [1], the “Mean Diff., Untreated vs treated” value amounted to 7.842 and the “reduction of surviving bacteria … (significance)” value is given as “significant reduction”. The “inhibition of bacteria in biofilm state compared to untreated” value in data set [1] (24 h) was “complete inhibition”. Besides, the “Antibiotic susceptibility” value in data set [2] is “R and S”. Further, in the data set on E.coli ATCC 25922, the “Antibiotic susceptibility” value is given as “S”. In addition, in the data set with B. pseudomallei biofilm, the “concentration with anti-B. pseudomallei biofilm / biofilm inhibition activity” value is 936 µM. Further, in data set [3], the “Mean Diff., 0 vs comparator” value turned out to be 13.7.

Take `O=C(O)c1cn(C2CC2)c2cc(N3CCNCC3)c(F)cc2c1=O` [CIP]: in the data set on E.coli ATCC 25922, the “Antibiotic susceptibility” value was “S”.

For “HAEHKVKIGVEQKYGQFPQGTEVTYTCSGNYFLM [Sushi 3]”, the figures for the “Susceptibility of strain to AMP (S/R)” value in the data set with B. pseudomallei isolates and in the data set with E. coli were “R” and “S”, respectively. Moreover, the “Mean Diff., Untreated vs treated” value in [1] is 0.04165.

Consider `CC(C)C[C@H](NC(=O)[C@H](CCCNC(=N)N)NC(=O)CNC(=O)CNC(=O)[C@@H](N)CCCNC(=N)N)C(=O)N[C@H]1CSSC[C@@H](C(=O)N[C@H](C(=O)NCC(=O)N[C@@H](CCCNC(=N)N)C(N)=O)C(C)C)NC(=O)[C@H](C(C)C)NC(=O)[C@@H]2CSSC[C@H](NC(=O)[C@H](Cc3ccc(O)cc3)NC1=O)C(=O)N[C@@H](CCCNC(=N)N)C(=O)N[C@@H](CCCNC(=N)N)C(=O)N[C@@H](CCCNC(=N)N)C(=O)N[C@@H](Cc1ccccc1)C(=O)N2` [PG1, Protegrin 1], for which the “B. pseudomallei isolates susceptible to the AMP” value with B. pseudomallei isolates is given as 100%. In data set [1], the “Mean Diff., Untreated vs treated” value turned out to be 6.743; the “reduction of surviving bacteria … (significance)” value is recorded as “significant reduction”; the “surviving bacteria in biofilm state 24 h post exposure” value came to 1.1 log CFU/biofilm. Also, the “Susceptibility of strain to AMP (S/R)” value in the data set on E. coli was “S”. The “MIC, B. pseudomallei (average)” value in data set [5] is 15.46 ± 5.02 µM (≈ 33.3 µg/mL). In addition, in [6] (37 °C 24 h), the “MIC, E.coli (ATCC 29522)” value is 5.8 ± 1.09E-15 μM. For the same compound, the “percentage of viable cells, A549” value in data set [7] (2 h, 115 μM) is 3.3%. Further, in data set [8] (2 h, 115 μM), the “percentage of viable cells, HEPG2” value worked out at 5.0%. The “percentage of viable cells, AGS” value in data set [9] (2 h, 115 μM) is listed as 3.0%. Moreover, the “Mean Diff., 0 vs comparator” value in data set [3] is on record as 96.14. Further, in [10], the “cytotoxicity against Hep G2” value is reported as “cytotoxic”.

With GIGKFLHSAKKFGKAFVGEIMNS [Magainin 2], the “Susceptibility of strain to AMP (S/R)” value with B. pseudomallei isolates is given as “R”; with E. coli, “S”. In addition, the “Mean Diff., Untreated vs treated” value in data set [1] came to 0.2494.

In the case of `O=C(N[C@H](CO)[C@H](O)c1ccc([N+](=O)[O-])cc1)C(Cl)Cl` [C], the “Antibiotic susceptibility” value in data set [2] is “S and R”; in the data set on E.coli ATCC 25922, “S”.

As for `CC[C@H](C)[C@H](NC(=O)[C@H](CCCCN)NC(=O)[C@H](CCC(=O)O)NC(=O)[C@H](CCCCN)NC(=O)[C@H](CO)NC(=O)[C@H](CCCCN)NC(=O)[C@H](CCCNC(=N)N)NC(=O)[C@H](Cc1ccccc1)NC(=O)[C@H](Cc1ccccc1)NC(=O)[C@H](CC(=O)O)NC(=O)CNC(=O)[C@H](CC(C)C)NC(=O)[C@@H](N)CC(C)C)C(=O)NCC(=O)N[C@@H](CCCCN)C(=O)N[C@@H](CCC(=O)O)C(=O)N[C@@H](Cc1ccccc1)C(=O)N[C@@H](CCCCN)C(=O)N[C@@H](CCCNC(=N)N)C(=O)N[C@H](C(=O)N[C@H](C(=O)N[C@@H](CCC(N)=O)C(=O)N[C@@H](CCCNC(=N)N)C(=O)N[C@H](C(=O)N[C@@H](CCCCN)C(=O)N[C@@H](CC(=O)O)C(=O)N[C@@H](Cc1ccccc1)C(=O)N[C@@H](CC(C)C)C(=O)N[C@@H](CCCNC(=N)N)C(=O)N[C@@H](CC(N)=O)C(=O)N[C@@H](CC(C)C)C(=O)N[C@H](C(=O)N1CCC[C@H]1C(=O)N[C@@H](CCCNC(=N)N)C(=O)N[C@H](C(=O)N[C@@H](CCC(=O)O)C(=O)N[C@@H](CO)C(=O)O)[C@@H](C)O)C(C)C)[C@@H](C)CC)C(C)C)[C@@H](C)CC` [LL-37], in data set [6] (ATCC 29522, 24 h), the “MBC, E.coli (ATCC 29522)” value was 14.8 ± 6.42 µM (≈ 66.5 µg/mL) and the “MIC, E.coli (ATCC 29522)” value turned out to be 14.8 ± 6.42 µM (≈ 66.5 µg/mL). In addition, the “cytotoxicity to A549” value in data set [11] was “cytotoxic”. Moreover, the “cytotoxicity to AGS” value in data set [12] is listed as “cytotoxic”.
